Results: patent US11026917B2, “Antioxidative stress compositions, methods of preparing and uses thereof” (priority 2016, dated 2021)

Assay: Concentrations of chemopreventive compounds and metabolites in dog serum by LC-MS/MS
Assay type: in vivo
Description: Serum was isolated from whole blood obtained during the two phases of the trial and analysed by LC-MS/MS.
Whole blood (6 ml) was collected from each canine subject at the end of the first and second phases of the study. Blood was obtained by venipuncture from either the cephalic or jugular vein (typically with an 18-20 gauge needle attached to a 10 ml syringe). Manual restraint and aseptic techniques were used. The blood from each dog was placed in labelled collection tubes (2 ml in lavender EDTA collection tubes, 1 ml in green lithium heparin collection tubes, and 3 ml in red silicone coated tubes). The lavender tubes were inverted and used to run Complete Blood Counts (CBC) and for isolation of lymphocytes, the green tubes were inverted and used to run Comprehensive Chemistry Blood Profiles (CCBP), and the blood within the red tubes were allowed to clot, and then centrifuged for 15 min at 3400 rpm to obtain serum. The serum was frozen prior to analysis by LC-MS/MS. The CBC and CCBPs were run on Abaxis™ VetScan machines, particularly the VS2 and HMS.
Liquid-liquid extraction was used to prepare dog serum for mass spectrometric analysis. Briefly, 300 μl of serum was mixed with 900 μl of ice-cold acetonitrile. Each sample was vortex mixed for 20 sec and then centrifuged for 10 min at 13,000×g. The supernatant was removed and evaporated to dryness under a stream of nitrogen, and each extract was reconstituted in 100 μl of acetonitrile/water (20:80, v/v) prior to analysis using LC-MS/MS.
Both instruments were equipped with negative ion electrospray and interfaced to Shimadzu HPLC systems (Prominence Ark. or Nexera, respectively). A Waters (Milford, Mass.) XBridge C18 column (2.1×100 mm; 2.5 μm) was used for chromatographic separations. The solvent system consisted of a 5-min linear gradient from 10% to 90% acetonitrile in water at a flow rate of 400 μl/min. The injection volume was 10 μl.
For quantitative analysis, selected reaction monitoring (SRM) was used with collision-induced dissociation and argon as the collision gas. Deprotonated molecules of each analyte were used as precursor ions, and the SRM transitions of the two most abundant product ions were selected as quantifiers and qualifiers, respectively. In some cases, only one SRM transition (quantifier) was used due to the low abundances of other fragment ions. […] The SRM transitions for genistein were m/z 269 to 89 and m/z 269 to 187, and the SRM transitions for genistein glucuronide and genistein sulfate were m/z 445 to 269 and m/z 349 to 269, respectively. Quercetin was measured using the SRM transitions of m/z 301 to 151 and m/z 301 to 179, and its glucuronide and sulfate metabolites were monitored using the transitions of m/z 477 to 301 and m/z 381 to 301, respectively. Synthetic isopentyl naringenin was used as an internal standard (SRM transition m/z 341 to 119).

concentration at 3 weeks (dog, in vivo) | SMILES | detection in dog serum (in words) (dog, in vivo) | other results
19.3 ± 11 ng/mL | Oc1ccc(C=Cc2cc(O)cc(O)c2)cc1 [Resveratrol] | – | –
13.6 ± 5.27 ng/mL | O=S(=O)(O)Oc1cc(O)cc(/C=C\c2ccc(O)cc2)c1 [cis-Resveratrol-3-sulfate] | – | –

The next lines start with the compound.

SMILES | concentration at 3 weeks (dog, in vivo) | detection in dog serum (in words) (dog, in vivo) | other results
COc1cc(/C=C/C(=O)CC(=O)/C=C/c2ccc(O[C@@H]3O[C@H](C(=O)O)[C@@H](O)[C@H](O)[C@H]3O)c(OC)c2)ccc1O [Curcumin glucuronide] | – | detected at low levels in serum of two dogs | –
O=c1oc2c(O)c(O)cc3c(=O)oc4c(O)c(O)cc1c4c23 [Ellagic acid] | – | No ellagic acid or curcumin was detected in serum | –
O=c1c(-c2ccc(O)cc2)coc2cc(O)cc(O)c12 [Genistein] | – | – | detection in dog serum (in words) (second phase, after 3 weeks of two biscuits/day): no unconjugated genistein was detected
O=c1c(O)c(-c2ccc(O)c(O)c2)oc2cc(O)cc(O)c12 [Quercetin] | – | – | Concentration in serum, Second phase (dog, in vivo, 3 weeks): 2 ± 1 ng/mL
O=S(=O)(O)Oc1cc(O)cc(C=Cc2ccc(O)cc2)c1 [resveratrol-3-sulfate] | – | most abundant form of resveratrol in dog serum | –
O=S(=O)(O)Oc1ccc(/C=C/c2cc(O)cc(O)c2)cc1 [trans-Resveratrol-4′-sulfate] | 44.4 ± 12.2 ng/mL | – | –
